Laboratory results published in paper PMC11424024 (Methods in enzymology, 2024).

Columns and labels:
Rv0097 = Rv0097 (Mycobacterium tuberculosis, UniProt P9WG83)
ScoE = ScoE (Streptomyces coeruleorubidus, UniProt A0A3B6UEU3); experiment: LC-HRMS; format: biochemical; details: α-KG, Fe(II); no INBA formed, only a trace of 2

Rv0097, sequence (P9WG83 whole entry): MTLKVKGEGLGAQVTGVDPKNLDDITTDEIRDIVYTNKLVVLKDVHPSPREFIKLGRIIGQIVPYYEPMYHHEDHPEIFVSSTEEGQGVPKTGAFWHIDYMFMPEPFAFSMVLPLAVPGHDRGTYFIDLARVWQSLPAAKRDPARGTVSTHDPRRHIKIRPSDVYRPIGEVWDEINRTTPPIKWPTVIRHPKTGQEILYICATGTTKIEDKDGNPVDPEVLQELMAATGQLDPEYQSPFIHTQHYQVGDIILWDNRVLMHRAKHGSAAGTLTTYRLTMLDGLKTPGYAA

| SMILES | LC-HRMS of INDA formation (Rv0097) | LC-HRMS; glyoxylate derivatization with 2-nitrophenylhydrazine (ScoE) |
| --- | --- | --- |
| CCCCCCCC(CC(=O)O)NCC(=O)O (racemic) [CADA, 3-[(carboxymethyl)amino]decanoic acid] | We reconstituted the activity of Rv0097 using the surrogate substrate CADA | – |
| C[C@H](CC(=O)O)NCC(=O)O [CABA, (R)-3-((carboxymethyl)amino)butanoic acid] | – | Y96F ScoE mutant revealed that it was unable to synthesize INBA from CABA |
